From patent US9493446B2, “Orexin receptor antagonists which are [ortho bi-(hetero-)aryl]-[2-(meta bi-(hetero-)aryl)-pyrrolidin-1-yl]-methanone derivatives” (Actelion Pharmaceuticals Ltd, priority 2012, dated 2016)
Like-named read-outs stand apart in the source and are kept apart here.

Legend:
orexin-1 = orexin-1 (Homo sapiens (Human), UniProt O43613); experiment: Intracellular calcium measurement (FLIPR), CHO cells expressing human orexin-1 receptor, 3 nM orexin-A; type: cell-based; conditions: read-out: IC50 OX1
Summary of the method: (§1)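 Fluo-4 AM-loaded CHO cells; antagonist preincubation 120 min, then 3 nM orexin-A (final) in HBSS/0.1% BSA/20 mM HEPES. FLIPR read at 1 s intervals; peak height vs. agonist-plus-vehicle control → IC50.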

human orexin-2 receptor = human orexin-2 receptor (Homo sapiens (Human), UniProt O43614); experiment: Intracellular calcium measurement (FLIPR), CHO cells expressing human orexin-2 receptor, 3 nM orexin-A; type: cell-based; conditions: read-out: IC50 OX2
Summary of the method: as §1

[1] = CHO cells expressing human orexin-1 receptor, FLIPR, 3 nM orexin-A, geometric mean if determined several times
[2] = CHO cells expressing human orexin-2 receptor, FLIPR, 3 nM orexin-A, geometric mean if determined several times

human orexin-2 receptor, sequence (O43614 whole entry): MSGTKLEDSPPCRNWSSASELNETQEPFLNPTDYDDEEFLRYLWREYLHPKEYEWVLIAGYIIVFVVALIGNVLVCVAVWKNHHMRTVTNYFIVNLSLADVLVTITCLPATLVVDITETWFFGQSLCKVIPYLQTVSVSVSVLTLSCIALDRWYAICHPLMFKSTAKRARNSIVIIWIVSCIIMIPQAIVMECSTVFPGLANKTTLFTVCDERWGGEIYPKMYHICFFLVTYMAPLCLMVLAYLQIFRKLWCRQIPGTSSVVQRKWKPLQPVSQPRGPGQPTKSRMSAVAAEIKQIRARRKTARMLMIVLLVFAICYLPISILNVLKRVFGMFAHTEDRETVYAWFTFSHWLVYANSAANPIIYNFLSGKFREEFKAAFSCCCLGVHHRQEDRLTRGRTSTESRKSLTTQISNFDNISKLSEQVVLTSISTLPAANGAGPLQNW
orexin-1, sequence (O43613 whole entry): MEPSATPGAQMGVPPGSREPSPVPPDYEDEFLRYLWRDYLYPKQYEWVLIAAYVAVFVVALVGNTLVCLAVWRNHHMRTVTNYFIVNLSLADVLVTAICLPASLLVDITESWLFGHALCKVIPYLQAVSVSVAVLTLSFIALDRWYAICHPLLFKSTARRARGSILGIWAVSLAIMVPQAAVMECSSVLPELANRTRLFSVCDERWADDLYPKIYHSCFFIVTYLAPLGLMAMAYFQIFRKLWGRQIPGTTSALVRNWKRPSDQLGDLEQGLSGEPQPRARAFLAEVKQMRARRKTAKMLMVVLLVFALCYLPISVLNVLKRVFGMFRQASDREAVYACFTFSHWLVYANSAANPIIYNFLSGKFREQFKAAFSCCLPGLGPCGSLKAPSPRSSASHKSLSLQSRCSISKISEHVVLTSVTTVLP

IC50 (orexin-1; [1]) | IC50 (human orexin-2 receptor; [2]) | Molecule | IC50 (orexin-1) | IC50 (human orexin-2 receptor)
109 nM | 80 nM | COc1cc(C)cc(-c2nc([C@@H]3CCCN3C(=O)c3ccc(C)cc3-n3nccn3)no2)c1 [compound 412, {(S)-2-[5-(3-Methoxy-5-methyl-phenyl)-[1,2,4]oxadiazol-3-yl]-pyrrolidin-1-yl}-(4-methyl-2-[1,2,3]triazol-2-yl-phenyl)-methanone] |  | 
4 nM | 8 nM | Cc1cc(C(=O)N2CCC[C@@]2(C)c2nnc(-c3ccccc3OC(F)(F)F)[nH]2)c(-n2nccn2)cc1C [compound 546, (4,5-Dimethyl-2-[1,2,3]triazol-2-yl-phenyl)-{(S)-2-methyl-2-[5-(2-trifluoromethoxy-phenyl)-4H-[1,2,4]triazol-3-yl]-pyrrolidin-1-yl}-methanone] |  | 
1480 nM | 297 nM | Cc1c(F)cccc1-c1noc([C@@H]2CCCN2C(=O)c2cc(C#N)ccc2-n2nccn2)n1 [compound 277, 3-{(S)-2-[3-(3-Fluoro-2-methyl-phenyl)-[1,2,4]oxadiazol-5-yl]-pyrrolidine-1-carbonyl}-4-[1,2,3]triazol-2-yl-benzonitrile] |  | 
81 nM | 39 nM | Cc1cc(C)cc(-c2cc([C@@H]3CCCN3C(=O)c3cc(C)ccc3-n3nccn3)on2)c1 [compound 423, {(S)-2-[3-(3,5-Dimethyl-phenyl)-isoxazol-5-yl]-pyrrolidin-1-yl}-(5-methyl-2-[1,2,3]triazol-2-yl-phenyl)-methanone] |  | 
2360 nM | 3130 nM | Cc1cccc(-c2ocnc2C(=O)N2CCC[C@H]2c2nnc(-c3ccccc3OC(F)(F)F)[nH]2)c1 [compound 486, (5-m-Tolyl-oxazol-4-yl)-{(S)-2-[5-(2-trifluoromethoxy-phenyl)-4H-[1,2,4]triazol-3-yl]-pyrrolidin-1-yl}-methanone] |  | 
55 nM | 15 nM | COc1c(F)cccc1-c1nnc([C@@H]2CCCN2C(=O)c2ccc(C)cc2-n2nccn2)[nH]1 [compound 477, {(S)-2-[5-(3-Fluoro-2-methoxy-phenyl)-4H-[1,2,4]triazol-3-yl]-pyrrolidin-1-yl}-(4-methyl-2-[1,2,3]triazol-2-yl-phenyl)-methanone] |  | 
136 nM | 14 nM | COc1c(Cl)cccc1-c1nnc([C@@H]2CCCN2C(=O)c2cc(C)ccc2-n2nccn2)[nH]1 [compound 488, {(S)-2-[5-(3-Chloro-2-methoxy-phenyl)-4H-[1,2,4]triazol-3-yl]-pyrrolidin-1-yl}-(5-methyl-2-[1,2,3]triazol-2-yl-phenyl)-methanone] |  | 
322 nM | 16 nM | COc1cc(C(=O)N2CCC[C@H]2c2cc(-c3ccccc3)on2)c(-n2nccn2)cc1C [compound 432, (5-Methoxy-4-methyl-2-[1,2,3]triazol-2-yl-phenyl)-[(S)-2-(5-phenyl-isoxazol-3-yl)-pyrrolidin-1-yl]-methanone] |  | 
311 nM | 133 nM | Cc1ccc(-c2ccccn2)c(C(=O)N2CCC[C@H]2c2nc(-c3ccccc3C(F)(F)F)no2)c1 [compound 184, (5-Methyl-2-pyridin-2-yl-phenyl)-{(S)-2-[3-(2-trifluoromethyl-phenyl)-[1,2,4]oxadiazol-5-yl]-pyrrolidin-1-yl}-methanone] |  | 
53 nM | 16 nM | CCOc1ncccc1-c1noc([C@@H]2CCCN2C(=O)c2cc(OC)ccc2-n2nccn2)n1 [compound 220, {(S)-2-[3-(2-Ethoxy-pyridin-3-yl)-[1,2,4]oxadiazol-5-yl]-pyrrolidin-1-yl}-(5-methoxy-2-[1,2,3]triazol-2-yl-phenyl)-methanone] |  | 
65 nM | 4 nM | Cc1ccc(-n2nccn2)c(C(=O)N2CCC[C@H]2c2noc(-c3cccc(F)c3C)n2)c1 [compound 335, {(S)-2-[5-(3-Fluoro-2-methyl-phenyl)-[1,2,4]oxadiazol-3-yl]-pyrrolidin-1-yl}-(5-methyl-2-[1,2,3]triazol-2-yl-phenyl)-methanone] |  | 

Second part, the molecule before the results:

Molecule | IC50 (orexin-1; [1]) | IC50 (human orexin-2 receptor; [2]) | IC50 (orexin-1) | IC50 (human orexin-2 receptor)
COc1cc(-c2noc([C@@H]3CCCN3C(=O)c3cc(C)ccc3-n3nccn3)n2)cc(C)n1 [compound 66, {(S)-2-[3-(2-Methoxy-6-methyl-pyridin-4-yl)-[1,2,4]oxadiazol-5-yl]-pyrrolidin-1-yl}-(5-methyl-2-[1,2,3]triazol-2-yl-phenyl)-methanone] | 302 nM | 155 nM |  | 
O=C(c1[nH]cnc1-c1ccccc1)N1CCC[C@H]1c1nc(-c2ccccc2OC(F)(F)F)no1 [compound 153, (5-Phenyl-3H-imidazol-4-yl)-{(S)-2-[3-(2-trifluoromethoxy-phenyl)-[1,2,4]oxadiazol-5-yl]-pyrrolidin-1-yl}-methanone] | 781 nM | 460 nM |  | 
Cc1c(Cl)cccc1-c1noc([C@@H]2CCCN2C(=O)c2cc(F)c(F)cc2-n2nccn2)n1 [compound 110] | 1690 nM | 159 nM |  | 
COc1c(F)cccc1-c1nnc([C@@H]2CCCN2C(=O)c2cc(C)ccc2-n2nccn2)o1 [Example 448, {(S)-2-[5-(3-Fluoro-2-methoxy-phenyl)-[1,3,4]oxadiazol-2-yl]-pyrrolidin-1-yl}-(5-methyl-2-[1,2,3]triazol-2-yl-phenyl)-methanone] | 762 nM | 236 nM |  | 
Cc1ccccc1-c1noc([C@@H]2CCCN2C(=O)c2cccs2)n1 [Ref 3] | 6270 nM | > 10000 nM |  | 
O=C(c1ccccc1-c1ncco1)N1CCC[C@H]1c1nc(-c2ccccc2OC(F)(F)F)no1 [compound 171, (2-Oxazol-2-yl-phenyl)-{(S)-2-[3-(2-trifluoromethoxy-phenyl)-[1,2,4]oxadiazol-5-yl]-pyrrolidin-1-yl}-methanone] | 104 nM | 30 nM |  | 
Cc1ccc(-n2nccn2)c(C(=O)N2CCC[C@H]2c2nc(-c3cc(C)nc(C)c3)no2)c1 [compound 65, {(S)-2-[3-(2,6-Dimethyl-pyridin-4-yl)-[1,2,4]oxadiazol-5-yl]-pyrrolidin-1-yl}-(5-methyl-2-[1,2,3]triazol-2-yl-phenyl)-methanone] | 758 nM | 375 nM |  | 
Cc1ccc(-n2nccn2)c(C(=O)N2CCC[C@H]2c2nnc(-c3cccc(F)c3C)o2)c1 [Example 453, {(S)-2-[5-(3-Fluoro-2-methyl-phenyl)-[1,3,4]oxadiazol-2-yl]-pyrrolidin-1-yl}-(5-methyl-2-[1,2,3]triazol-2-yl-phenyl)-methanone] | 398 nM | 80 nM |  | 
Cc1c(Cl)cccc1-c1noc([C@@H]2CCCN2C(=O)c2cc(C#N)ccc2-n2nccn2)n1 [compound 276] | 762 nM | 243 nM |  | 
Furan-3-yl-[(S)-2-(3-phenyl-[1,2,4]oxadiazol-5-yl)-pyrrolidin-1-yl]-methanone [Reference compound 4, reference compound] |  | 897 nM | > 5040 nM | 
Cc1onc(-c2ccccc2Cl)c1C(=O)N1CCC[C@H]1c1nnc(-c2cccc(Cl)c2C)o1 [Ref 9] | 11100 nM | > 21800 nM |  | 
COc1ccc(-n2nccn2)c(C(=O)N2CCC[C@H]2c2nc(-c3cccc(Cl)c3C)no2)c1F [compound 265] | 112 nM | 76 nM |  | 
COc1ccc(-c2nnc([C@@H]3CCCN3C(=O)c3cc(C)ccc3-n3nccn3)o2)cc1 [Example 457, {(S)-2-[5-(4-Methoxy-phenyl)-[1,3,4]oxadiazol-2-yl]-pyrrolidin-1-yl}-(5-methyl-2-[1,2,3]triazol-2-yl-phenyl)-methanone] | 17000 nM | 3440 nM |  | 
CCc1ccccc1-c1nnc([C@@H]2CCCN2C(=O)c2cc(C)ccc2-n2nccn2)o1 [Example 452, {(S)-2-[5-(2-Ethyl-phenyl)-[1,3,4]oxadiazol-2-yl]-pyrrolidin-1-yl}-(5-methyl-2-[1,2,3]triazol-2-yl-phenyl)-methanone] | 249 nM | 211 nM |  | 
Cc1ccc(-c2ccccn2)c(C(=O)N2CCC[C@H]2c2nc(-c3cccc(Cl)c3C)no2)c1 [compound 90] | 137 nM | 25 nM |  | 
Cc1nc(C(=O)N2CCC[C@H]2c2nc(-c3cccc(Cl)c3C)no2)c(-c2cccc(F)c2)s1 [compound 123] | 133 nM | 111 nM |  | 
COc1cc(C(=O)N2CCC[C@H]2c2nc(-c3cccc(Cl)c3C)no2)c(-n2cccn2)cc1C [compound 105] |  | 8 nM | 133 nM | 
O=C(c1cc(Cl)ccc1-n1nccn1)N1CCC[C@H]1c1nc(-c2ccccc2OC(F)(F)F)no1 [compound 143] | 47 nM |  |  | 34 nM
COc1cc(C(=O)N2CCC[C@H]2c2noc(-c3cccc(Cl)c3C)n2)c(-n2nccn2)cc1C [compound 320] | 25 nM | 1 nM |  | 
Cc1ccc(-n2nccn2)c(C(=O)N2CCC[C@H]2c2nc(-c3cn(C)c4ncccc34)no2)c1 [compound 51, {(S)-2-[3-(1-Methyl-1H-pyrrolo[2,3-b]pyridin-3-yl)-[1,2,4]oxadiazol-5-yl]-pyrrolidin-1-yl}-(5-methyl-2-[1,2,3]triazol-2-yl-phenyl)-methanone] | 15 nM | 11 nM |  | 
Cc1ccc(-n2cccn2)c(C(=O)N2CCC[C@H]2c2nc(-c3ccccc3OC(F)(F)F)no2)c1 [compound 137, (5-Methyl-2-pyrazol-1-yl-phenyl)-{(S)-2-[3-(2-trifluoromethoxy-phenyl)-[1,2,4]oxadiazol-5-yl]-pyrrolidin-1-yl}-methanone] | 33 nM | 23 nM |  | 
Cc1c(Cl)cccc1-c1nnc([C@]2(C)CCCN2C(=O)c2ccc(Cl)cc2-n2nccn2)[nH]1 [compound 555] | 27 nM | 11 nM |  | 
O=C(c1cc(F)c(F)cc1-n1nccn1)N1CCC[C@H]1c1nc(-c2ccccc2OC(F)(F)F)no1 [compound 161, (4,5-Difluoro-2-[1,2,3]triazol-2-yl-phenyl)-{(S)-2-[3-(2-trifluoromethoxy-phenyl)-[1,2,4]oxadiazol-5-yl]-pyrrolidin-1-yl}-methanone] | 751 nM | 204 nM |  | 
